The record followed here is article PMC9412534, “Diindolylmethane Derivatives: New Selective Blockers for T-Type Calcium Channels” (Membranes, 2022).

In assay [1] the test system is MCF-7, T-47D, A549 and HT-29 cells. Kind of assay: Cell viability MTT assay, four cancer cell lines (overall). Format: cell-based, human. The note with it: 50 µM, 72 h. On the procedure:
Human breast cancer cell line MCF-7 and T-47D, lung cancer cell line A549, and colon cancer cell line HT-29 were cultured under 5% carbon dioxide at 37 °C in DMEM Glutamax (Gibco, Life Technologies) supplemented with 10% (v/v) FBS. They were split in a ratio of 1:3–1:6 (ideally 2–4 × 10,000 cells/cm^2) when they reached 70–80% confluence using 0.25% Trypsin-EDTA. For cell viability MTT assay, cells were seeded into 96-well clear bottom culture plates (Corning, Lowell, MA, USA) at a density of 5 × 10^3 cells/well and settled at 37 °C for 24 h.
Seeded cells were treated with various concentrations of compounds for desired time period (24, 48 and 72 h). After the treatments, the media were removed from each well, and replaced with 25 μL of serum-free media and 25 μL of MTT Reagent (cat. no., ab211091; Abcam, Cambridge, MA, USA). The plate was then incubated at 37 °C for 3 h, and 75 μL of MTT Solvent (cat. no., ab211091; Abcam) was added into each well after incubation. The absorbance was evaluated at 590 nm. Cell-wells treated with 0.1% DMSO were used as positive control and no cell-wells were used as background control.

For assay [2], the system named is voltage-gated calcium channels (VGCC). Kind of assay: VGCC FLIPR cell-based assays, all channels (overall observation). Also noted: species or system human. As to the method: HEK 293 cells stably expressing CaV3.2 or CaV3.3 were seeded into 384-well black wall clear bottom plates (Corning) at a density of 30,000 cells per well. Transiently transfected CaV3.1HEK293 T cells were seeded into 384-well black wall clear bottom plates at a density of 60,000 cells per well. Once the cells reached 90–95% confluence after 24 h, the media were removed from the wells and replaced with 20 μL of 10% calcium 4 dye (Molecular Devices, Sunnyvale, CA, USA) in HBSS-HEPES (containing 5 mM KCl, 10 mM HEPES, 140 mM NaCl, 10 mM glucose, and 0.5 mM CaCl2, pH 7.4) with 0.1% bovine serum albumin (BSA). The cells were incubated for 30 min at 37 °C in the presence of 5% carbon dioxide. Each well on the reagent plates for the first addition contained 15 μL different concentrations of compounds dissolved in HBSS-HEPES containing 0.1% BSA and <0.5% DMSO and was incubated for 20 min after loaded. Positive and negative controls contained 15 μL of HBSS-HEPES (0.1% BSA) alone. The plates were placed in the FLIPR^TETRA (Molecular Devices, Sunnyvale, CA, USA) programmed to measure maximum fluorescence intensity following a second addition of the agonist 5 mM CaCl2. The fluorescence readings were recorded and converted as described previously, and HBSS-HEPES (0.1% BSA) was used in the second addition as a negative control.
SH-SY5Y cells were seeded into 384-well black wall clear bottom plates at a density of 15,000 cells per well, resulting in 90–95% confluence after 24 h. The media were then removed from the wells and replaced with 20 μL of 10% calcium 4 dye (Molecular Devices) in physiological salt solution (PSS) (containing 5.9 mM KCl, 1.4 mM MgCl2, 10 mM HEPES, 1.2 mM NaH2 PO4, 5 mM NaHCO3, 140 mM NaCl, 11.5 mM glucose, and 1.8 mM CaCl2, pH 7.4) with 0.1% BSA. As reported, for N-type calcium channel FLIPR assays the cells were pre-incubated with 10 µM nifedipine added in the dye to ensure full inhibition of L-type calcium responses. For L-type calcium channel FLIPR assays, the cells were pre-incubated with 1 µM CVID added in the dye to ensure full inhibition of N-type calcium responses. Positive control on the first reagent plate contained 15 μL of PSS (0.1% BSA), whereas PSS (0.1% BSA) containing 1 µM CVID and 10 µM nifedipine (final concentration) was used as a negative control. The fluorescence readings were recorded and converted as described previously, and agonist containing 90 mM KCl + 5 mM CaCl2 was used in the second addition.

Consider `O=C(c1cn(Cc2ccccc2)c2ccccc12)c1cn(Cc2ccccc2)c2ccccc12` [IX, bis(1-benzyl-1H-indol-3-yl)methanone], for which the “effect on cancer cell viability” value in assay [1] is reported as “did not affect cancer cell viability”.
On to `O=C(c1c[nH]c2cc(Br)ccc12)c1c[nH]c2cc(Br)ccc12` [IV], for which the “inhibition of all the Ca2+ responses” value in assay [2] was “poor inhibition”.
